Results taken from patent US9580423B2, “Bicyclic heterocycles as FGFR4 inhibitors” (Incyte Corporation, priority 2015, dated 2017).
Read-outs that look alike come from different tables or passages of the source.

Tests used:
FGFR4 = FGFR4 (Homo sapiens (Human), UniProt P22455); assay: FGFR Enzymatic Assay (FRET peptide phosphorylation), FGFR4; settings: for FGFR1/FGFR4 IC50 ratio / FGFR2/FGFR4 IC50 ratio / FGFR3/FGFR4 IC50 ratio: IC50 ratio showing FGFR4 selectivity
Excerpt: (§1) The enzymes were purchased from Millipore or Invitrogen.
(§2) GraphPad prism3 was used to analyze the data. The IC50 values were derived by fitting the data to the equation for a sigmoidal dose-response with a variable slope. Y=Bottom+(Top-Bottom)/(1+10^((LogIC50−X)*HillSlope)) where X is the logarithm of concentration and Y is the response.

FGFR3 = FGFR3 (Homo sapiens (Human), UniProt P22607); assay: FGFR Enzymatic Assay (FRET peptide phosphorylation), FGFR3
Excerpt: as §1, §2

FGFR1 = FGFR1 (Homo sapiens (Human), UniProt P11362); assay: FGFR Enzymatic Assay (FRET peptide phosphorylation), FGFR1; settings: read-out: FGFR1 IC50
Excerpt: as §1, §2

FGFR2 = FGFR2 (Homo sapiens (Human), UniProt P21802); assay: FGFR Enzymatic Assay (FRET peptide phosphorylation), FGFR2
Excerpt: as §1, §2

[1] = read-out: FGFR4 IC50, pre-incubated for 5 to 10 minutes
[2] = read-out: FGFR4 IC50, pre-incubated for 4 hours
[3] = FGFR3 IC50 (nM), pre-incubated for 5 to 10 minutes
[4] = FGFR3 IC50 (nM), pre-incubated for 4 hours
[5] = pre-incubated for 5 to 10 minutes
[6] = read-out: FGFR2 IC50, pre-incubated for 5 to 10 minutes
[7] = read-out: FGFR2 IC50, pre-incubated for 4 hours
[8] = read-out: FGFR3 IC50, pre-incubated for 5 to 10 minutes
[9] = read-out: FGFR3 IC50, pre-incubated for 4 hours

FGFR4, sequence (P22455 22-802): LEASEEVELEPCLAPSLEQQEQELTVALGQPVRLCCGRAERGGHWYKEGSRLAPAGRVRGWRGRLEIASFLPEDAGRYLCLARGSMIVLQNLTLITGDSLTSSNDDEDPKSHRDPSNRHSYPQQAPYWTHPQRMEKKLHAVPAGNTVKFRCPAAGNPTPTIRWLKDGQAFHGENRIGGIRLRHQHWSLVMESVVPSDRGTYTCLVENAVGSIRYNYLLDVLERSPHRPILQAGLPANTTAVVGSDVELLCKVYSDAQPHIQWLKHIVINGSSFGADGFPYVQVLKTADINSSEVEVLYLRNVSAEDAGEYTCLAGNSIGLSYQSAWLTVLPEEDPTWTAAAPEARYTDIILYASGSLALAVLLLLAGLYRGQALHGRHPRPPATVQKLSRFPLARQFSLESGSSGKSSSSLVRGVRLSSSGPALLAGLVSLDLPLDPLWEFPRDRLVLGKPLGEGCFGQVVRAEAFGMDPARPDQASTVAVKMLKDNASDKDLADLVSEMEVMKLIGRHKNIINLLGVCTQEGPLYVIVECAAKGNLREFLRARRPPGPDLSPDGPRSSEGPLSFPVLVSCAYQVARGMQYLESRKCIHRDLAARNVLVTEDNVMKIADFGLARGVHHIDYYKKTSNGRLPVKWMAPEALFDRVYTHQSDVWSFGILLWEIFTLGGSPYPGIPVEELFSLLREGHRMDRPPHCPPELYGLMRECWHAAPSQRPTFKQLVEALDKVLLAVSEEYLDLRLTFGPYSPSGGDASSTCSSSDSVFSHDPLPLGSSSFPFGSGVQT
FGFR2, sequence (P21802 22-821): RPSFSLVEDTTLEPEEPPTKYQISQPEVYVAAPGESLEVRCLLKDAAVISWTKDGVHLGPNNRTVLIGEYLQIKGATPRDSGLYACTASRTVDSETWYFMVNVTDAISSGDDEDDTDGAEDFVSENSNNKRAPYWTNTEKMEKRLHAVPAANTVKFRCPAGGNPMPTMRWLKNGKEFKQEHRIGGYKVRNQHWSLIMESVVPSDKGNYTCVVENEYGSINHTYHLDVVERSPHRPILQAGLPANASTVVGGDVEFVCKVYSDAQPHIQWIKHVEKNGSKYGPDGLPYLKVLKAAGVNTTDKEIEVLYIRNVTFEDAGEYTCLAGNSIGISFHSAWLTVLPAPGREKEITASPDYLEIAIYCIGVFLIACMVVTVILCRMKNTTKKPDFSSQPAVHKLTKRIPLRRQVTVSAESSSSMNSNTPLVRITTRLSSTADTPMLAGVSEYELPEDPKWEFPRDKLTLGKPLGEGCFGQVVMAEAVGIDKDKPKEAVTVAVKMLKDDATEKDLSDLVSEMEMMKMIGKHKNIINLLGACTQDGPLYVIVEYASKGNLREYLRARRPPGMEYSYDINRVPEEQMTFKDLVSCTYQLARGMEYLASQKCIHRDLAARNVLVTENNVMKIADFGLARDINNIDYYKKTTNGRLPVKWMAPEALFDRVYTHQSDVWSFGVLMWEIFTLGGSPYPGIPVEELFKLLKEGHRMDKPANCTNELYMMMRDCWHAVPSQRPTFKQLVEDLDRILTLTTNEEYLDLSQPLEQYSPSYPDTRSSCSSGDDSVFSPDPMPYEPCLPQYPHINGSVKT
FGFR1, sequence (P11362 22-822): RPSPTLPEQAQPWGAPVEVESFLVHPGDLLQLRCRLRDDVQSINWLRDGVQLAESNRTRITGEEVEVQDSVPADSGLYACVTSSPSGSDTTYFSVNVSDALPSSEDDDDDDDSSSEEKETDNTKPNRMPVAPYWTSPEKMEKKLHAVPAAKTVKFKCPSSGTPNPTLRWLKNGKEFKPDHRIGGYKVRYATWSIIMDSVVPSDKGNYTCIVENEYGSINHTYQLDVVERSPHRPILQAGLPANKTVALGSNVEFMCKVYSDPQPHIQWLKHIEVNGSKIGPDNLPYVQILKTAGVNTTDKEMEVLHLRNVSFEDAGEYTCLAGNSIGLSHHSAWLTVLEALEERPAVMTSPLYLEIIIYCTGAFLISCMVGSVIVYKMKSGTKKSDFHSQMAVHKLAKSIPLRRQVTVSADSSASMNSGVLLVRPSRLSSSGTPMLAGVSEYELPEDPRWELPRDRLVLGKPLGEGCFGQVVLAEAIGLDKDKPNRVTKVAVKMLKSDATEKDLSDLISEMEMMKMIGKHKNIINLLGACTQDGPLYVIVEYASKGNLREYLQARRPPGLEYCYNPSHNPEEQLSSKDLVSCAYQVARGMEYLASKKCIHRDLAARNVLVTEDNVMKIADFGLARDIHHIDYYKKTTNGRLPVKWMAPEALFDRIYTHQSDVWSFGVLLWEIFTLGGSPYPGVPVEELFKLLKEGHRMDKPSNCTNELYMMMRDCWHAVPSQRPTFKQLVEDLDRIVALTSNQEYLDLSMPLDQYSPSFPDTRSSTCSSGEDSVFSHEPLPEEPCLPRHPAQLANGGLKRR
FGFR3, sequence (P22607 23-806): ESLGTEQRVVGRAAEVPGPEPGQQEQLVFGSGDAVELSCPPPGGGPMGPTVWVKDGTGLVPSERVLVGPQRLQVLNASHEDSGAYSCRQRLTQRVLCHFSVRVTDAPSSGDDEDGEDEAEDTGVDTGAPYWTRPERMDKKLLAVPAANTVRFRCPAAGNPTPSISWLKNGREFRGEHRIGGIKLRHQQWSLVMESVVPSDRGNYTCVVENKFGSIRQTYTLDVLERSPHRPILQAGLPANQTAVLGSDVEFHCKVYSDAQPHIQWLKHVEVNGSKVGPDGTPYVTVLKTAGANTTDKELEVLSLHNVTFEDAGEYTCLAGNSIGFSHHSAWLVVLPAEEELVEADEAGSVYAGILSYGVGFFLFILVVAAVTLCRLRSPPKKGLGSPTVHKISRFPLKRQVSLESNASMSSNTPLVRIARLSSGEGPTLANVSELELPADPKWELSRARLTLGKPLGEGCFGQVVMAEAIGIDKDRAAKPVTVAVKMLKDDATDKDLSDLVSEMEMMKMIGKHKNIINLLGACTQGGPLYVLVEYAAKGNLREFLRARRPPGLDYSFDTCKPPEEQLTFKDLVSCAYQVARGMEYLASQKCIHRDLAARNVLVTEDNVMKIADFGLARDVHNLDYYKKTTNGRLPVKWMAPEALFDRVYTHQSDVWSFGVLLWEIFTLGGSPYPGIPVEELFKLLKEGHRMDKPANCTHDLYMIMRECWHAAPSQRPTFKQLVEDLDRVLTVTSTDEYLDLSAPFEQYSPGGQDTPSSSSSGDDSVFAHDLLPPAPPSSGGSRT

Compound | IC50 (FGFR4; [1]) [nM] | IC50 (FGFR4; [2]) [nM] | IC50 (FGFR3; [3]) [nM] | IC50 (FGFR3; [4]) [nM] | FGFR1/FGFR4 IC50 ratio (FGFR4; [5]) | FGFR2/FGFR4 IC50 ratio (FGFR4; [5]) | FGFR3/FGFR4 IC50 ratio (FGFR4; [5]) | FGFR1/FGFR4 IC50 ratio (FGFR4; pre-incubated for 4 hours) | FGFR2/FGFR4 IC50 ratio (FGFR4; pre-incubated for 4 hours) | FGFR3/FGFR4 IC50 ratio (FGFR4; pre-incubated for 4 hours) | IC50 (FGFR1; [5]) [nM] | IC50 (FGFR1; pre-incubated for 4 hours) [nM] | IC50 (FGFR2; [6]) [nM] | IC50 (FGFR2; [7]) [nM] | IC50 (FGFR3; [8]) [nM] | IC50 (FGFR3; [9]) [nM] | IC50 (FGFR2) [nM] | IC50 (FGFR4) [nM]
C=CC(=O)Nc1cccc(-c2cc3c(cn2)CN(c2c(F)c(OC)cc(OC)c2F)C(=O)C32CC2)c1 [Example 1, N-{3-[2′-(2,6-difluoro-3,5-dimethoxyphenyl)-3′-oxo-2′,3′-dihydro-1′H-spiro[cyclopropane-1,4′-[2,7]naphthyridin]-6′-yl]phenyl}acrylamide] | < 10 | < 10 | 10 to 30 | 10 to 30 |  |  |  |  |  |  |  |  |  |  |  |  |  | 
C=CC(=O)Nc1ccc(C)c(-c2cc3c(cn2)CN(c2c(F)c(OC)cc(OC)c2F)C(=O)C32CC2)c1 [Example 2, N-(3-(2′-(2,6-difluoro-3,5-dimethoxyphenyl)-3′-oxo-2′,3′-dihydro-1′H-spiro[cyclopropane-1,4′-[2,7]naphthyridine]-6′-yl)-4-methylphenyl)acrylamide] | < 10 | < 10 |  |  | >100 | >100 | >100 | >100 | >100 | >100 | > 200 | > 200 | > 200 | > 200 | > 200 | > 200 |  | 
C=CC(=O)Nc1cncc(-c2cc3c(cn2)CN(c2c(F)c(OC)cc(OC)c2F)C(=O)C32CC2)c1 [Example 3, N-(5-(2′-(2,6-difluoro-3,5-dimethoxyphenyl)-3′-oxo-2′,3′-dihydro-1′H-spiro[cyclopropane-1,4′-[2,7]naphthyridine]-6′-yl)pyridin-3-yl)acrylamide] | < 10 | < 10 | 30 to 200 | 30 to 200 |  |  |  |  |  |  |  |  | 30 to 200 |  |  |  | 30 to 200 | 
C=CC(=O)Nc1cc(-c2cc3c(cn2)CN(c2c(F)c(OC)cc(OC)c2F)C(=O)C32CC2)ccn1 [Example 4, N-(4-(2′-(2,6-difluoro-3,5-dimethoxyphenyl)-3′-oxo-2′,3′-dihydro-1′H-spiro[cyclopropane-1,4′-[2,7]naphthyridine]-6′-yl)pyridin-2-yl)acrylamide] |  |  | 10 to 30 | 10 to 30 |  |  |  |  |  |  |  |  |  |  |  |  |  | 
C=CC(=O)Nc1ccc(C#N)c(-c2cc3c(cn2)CN(c2c(F)c(OC)cc(OC)c2F)C(=O)C32CC2)c1 [Example 5, N-(4-cyano-3-(2′-(2,6-difluoro-3,5-dimethoxyphenyl)-3′-oxo-2′,3′-dihydro-1′H-spiro[cyclopropane-1,4′-[2,7]naphthyridine]-6′-yl)phenyl)acrylamide] | < 10 | < 10 |  |  | >100 | >100 | >100 | >100 | >100 | >100 | > 200 | > 200 | > 200 | > 200 | > 200 | > 200 |  | 
C=CC(=O)Nc1cc(-c2cc3c(cn2)CN(c2c(F)c(OC)cc(OC)c2F)C(=O)C32CC2)c(C)cc1F [Example 6, N-(5-(2′-(2,6-difluoro-3,5-dimethoxyphenyl)-3′-oxo-2′,3′-dihydro-1′H-spiro[cyclopropane-1,4′-[2,7]naphthyridine]-6′-yl)-2-fluoro-4-methylphenyl)acrylamide] | < 10 | < 10 |  |  | >100 | >100 | >100 | >100 | >100 | >100 | > 200 | > 200 | > 200 | > 200 | > 200 | > 200 |  | 
C=CC(=O)Nc1cnc(C)c(-c2cc3c(cn2)CN(c2c(F)c(OC)cc(OC)c2F)C(=O)C32CC2)c1 [Example 7, N-(5-(2′-(2,6-difluoro-3,5-dimethoxyphenyl)-3′-oxo-2′,3′-dihydro-1′H-spiro[cyclopropane-1,4′-[2,7]naphthyridine]-6′-yl)-6-methylpyridin-3-yl)acrylamide] | < 10 | < 10 |  |  | >100 | >100 | >100 | >100 | >100 | >100 | > 200 | > 200 | > 200 | > 200 | > 200 | > 200 |  | 
C=CC(=O)N1CCCC(c2cc3c(cn2)CN(c2c(F)c(OC)cc(OC)c2F)C(=O)C32CC2)C1 (stereo not shown) [Example 8, 6′-(1-acryloylpiperidin-3-yl)-2′-(2,6-difluoro-3,5-dimethoxyphenyl)-1′H-spiro[cyclopropane-1,4′-[2,7]naphthyridin]-3′(2′H)-one] | > 200 |  |  |  | >5 | >1 | >1 | >10 | >2 | >2 | > 200 | > 200 | > 200 | > 200 | > 200 | > 200 |  | 30 to 200
C=CC(=O)N(C)c1cccc(-c2cc3c(cn2)CN(c2c(F)c(OC)cc(OC)c2F)C(=O)C32CC2)c1 [Example 9, N-(3-(2′-(2,6-difluoro-3,5-dimethoxyphenyl)-3′-oxo-2′,3′-dihydro-1′H-spiro[cyclopropane-1,4′-[2,7]naphthyridine]-6′-yl)phenyl)-N-methylacrylamide] | < 10 | < 10 | 10 to 30 | 10 to 30 |  |  |  |  |  |  |  |  | 30 to 200 |  |  |  | 30 to 200 | 
C=CC(=O)Nc1cc(-c2cc3c(cn2)CN(c2c(F)c(OC)cc(OC)c2F)C(=O)C32CC2)cc(N2CCOCC2)c1 [Example 10, N-{3-[2′-(2,6-difluoro-3,5-dimethoxyphenyl)-3′-oxo-2′,3′-dihydro-1′H-spiro[cyclopropane-1,4′-[2,7]naphthyridin]-6′-yl]-5-morpholin-4-ylphenyl}acrylamide] | < 10 | < 10 |  |  | >100 | >100 | >100 | >100 | >100 | >100 | > 200 | > 200 | > 200 | > 200 | > 200 | > 200 |  | 
C=CC(=O)Nc1cc(CN2CCOCC2)cc(-c2cc3c(cn2)CN(c2c(F)c(OC)cc(OC)c2F)C(=O)C32CC2)c1 [Example 11, N-[3-[2′-(2,6-difluoro-3,5-dimethoxyphenyl)-3′-oxo-2′,3′-dihydro-1′H-spiro[cyclopropane-1,4′-[2,7]naphthyridin]-6′-yl]-5-(morpholin-4-ylmethyl)phenyl]acrylamide] | < 10 | < 10 |  |  | >100 | >100 | >100 | >100 | >100 | >100 | > 200 | > 200 | > 200 | > 200 | > 200 | > 200 |  | 
C=CC(=O)Nc1cc(-c2cc3c(cn2)CN(c2c(F)c(OC)cc(OC)c2F)C(=O)C32CC2)ccc1CN1CCOCC1 [Example 12, N-(5-(2′-(2,6-difluoro-3,5-dimethoxyphenyl)-3′-oxo-2′,3′-dihydro-1′H-spiro[cyclopropane-1,4′-[2,7]naphthyridine]-6′-yl)-2-(morpholinomethyl)phenyl)acrylamide] | < 10 | < 10 | 30 to 200 | 10 to 30 | >10 | >1 | >1 | >100 | >25 | >10 | > 200 | > 200 | 30 to 200 |  |  |  | 30 to 200 | 
C=CC(=O)Nc1cc(-c2cc3c(cn2)CN(c2c(F)c(OC)cc(OC)c2F)C(=O)C32CC2)ccc1CO [Example 13, N-(5-(2′-(2,6-difluoro-3,5-dimethoxyphenyl)-3′-oxo-2′,3′-dihydro-1′H-spiro[cyclopropane-1,4′-[2,7]naphthyridine]-6′-yl)-2-(hydroxymethyl)phenyl)acrylamide] | < 10 | < 10 | 30 to 200 | 30 to 200 |  |  |  |  |  |  |  |  | 30 to 200 |  |  |  | 30 to 200 | 
C=CC(=O)Nc1cnn(CC(=O)NC)c1-c1cc2c(cn1)CN(c1c(F)c(OC)cc(OC)c1F)C(=O)C21CC1 [Example 20, N-(5-(2′-(2,6-difluoro-3,5-dimethoxyphenyl)-3′-oxo-2′,3′-dihydro-1′H-spiro[cyclopropane-l,4′[2,7]naphthyridine]-6′-yl)-1-(2-(methylamino)-2-oxoethyl)-1H-pyrazol-4-yl)acrylamide] |  |  |  |  |  |  |  | >50 | >100 | >100 |  |  |  |  |  |  |  | 
